Laboratory results published in US11053204B2, “Pyrimidinyloxy benzene derivatives as herbicides” (FMC Corporation, priority 2015, dated 2021).

How the values were obtained:
Format in all cases: in vivo
[1] = system: Italian ryegrass (Lolium multiflorum); experiment: Test A preemergence, visual injury rating; conditions: for Plant response rating, Ryegrass, Italian: 31 g ai/ha, 0 to 100 scale, 0 no effect, 100 complete control; for Ryegrass, Italian plant response rating: 125 g ai/ha, 0 to 100 scale (0 no effect, 100 complete control)
Summary of the method: (§1)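 Pre- and postemergence greenhouse screen. Soil: loam + sand. Spray carrier: solvent mixture, non-phytotoxic, with surfactant. Post timing at 1–2 leaves, height 2–10 cm. Readout: visual injury on a 0–100 scale roughly 10 days after application, untreated plants as reference.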

[2] = system: barnyardgrass (Echinochloa crus-galli); experiment: Test A preemergence, visual injury rating; conditions: for Plant response rating, Barnyardgrass: 31 g ai/ha, 0 to 100 scale, 0 no effect, 100 complete control; for Barnyardgrass plant response rating: 125 g ai/ha, 0 to 100 scale (0 no effect, 100 complete control)
Summary of the method: as §1

[3] = system: giant foxtail (Setaria faberii); experiment: Test A preemergence, visual injury rating; conditions: for Plant response rating, Foxtail, Giant: 31 g ai/ha, 0 to 100 scale, 0 no effect, 100 complete control; for Foxtail, Giant plant response rating: 125 g ai/ha, 0 to 100 scale (0 no effect, 100 complete control)
Summary of the method: as §1

kochia (Kochia scoparia) [4] = experiment: Test A preemergence, visual injury rating; conditions: for Plant response rating, Kochia: 31 g ai/ha, 0 to 100 scale, 0 no effect, 100 complete control; for Kochia plant response rating: 125 g ai/ha, 0 to 100 scale (0 no effect, 100 complete control)
Summary of the method: as §1

[5] = system: pigweed (Amaranthus retroflexus); experiment: Test A preemergence, visual injury rating; conditions: for Plant response rating, Pigweed: 31 g ai/ha, 0 to 100 scale, 0 no effect, 100 complete control; for Pigweed plant response rating: 125 g ai/ha, 0 to 100 scale (0 no effect, 100 complete control)
Summary of the method: as §1

[6] = system: ragweed (common ragweed, Ambrosia elatior); experiment: Test A preemergence, visual injury rating; conditions: for Plant response rating, Ragweed: 31 g ai/ha, 0 to 100 scale, 0 no effect, 100 complete control; for Ragweed plant response rating: 125 g ai/ha, 0 to 100 scale (0 no effect, 100 complete control)
Summary of the method: as §1

[7] = system: Italian ryegrass (Lolium multiflorum); experiment: Test A postemergence, visual injury rating; conditions: 0 is no effect, 100 is complete control; for Ryegrass, Italian plant response rating: 31 g ai/ha, 0 to 100 scale, approximately 10 days; for Ryegrass, Italian plant response rating (0 to 100 scale): 125 g ai/ha
Summary of the method: as §1

[8] = system: barnyardgrass (Echinochloa crus-galli); experiment: Test A postemergence, visual injury rating; conditions: 0 is no effect, 100 is complete control; for Barnyardgrass plant response rating: 31 g ai/ha, 0 to 100 scale, approximately 10 days; for Barnyardgrass plant response rating (0 to 100 scale): 125 g ai/ha
Summary of the method: as §1

[9] = system: blackgrass (Alopecurus myosuroides); experiment: Test A postemergence, visual injury rating; conditions: 0 is no effect, 100 is complete control; for Blackgrass plant response rating: 31 g ai/ha, 0 to 100 scale, approximately 10 days; for Blackgrass plant response rating (0 to 100 scale): 125 g ai/ha
Summary of the method: as §1

corn (Zea mays) = experiment: Test A postemergence, visual injury rating; conditions: 0 is no effect, 100 is complete control; for Corn plant response rating: 31 g ai/ha, 0 to 100 scale, approximately 10 days; for Corn plant response rating (0 to 100 scale): 125 g ai/ha
Summary of the method: as §1

[10] = system: galium (catchweed bedstraw, Galium aparine); experiment: Test A postemergence, visual injury rating; conditions: 0 is no effect, 100 is complete control; for Galium plant response rating: 31 g ai/ha, 0 to 100 scale, approximately 10 days; for Galium plant response rating (0 to 100 scale): 125 g ai/ha
Summary of the method: as §1

[11] = system: giant foxtail (Setaria faberii); experiment: Test A postemergence, visual injury rating; conditions: 0 is no effect, 100 is complete control; for Foxtail, Giant plant response rating: 31 g ai/ha, 0 to 100 scale, approximately 10 days; for Foxtail, Giant plant response rating (0 to 100 scale): 125 g ai/ha
Summary of the method: as §1

kochia (Kochia scoparia) [12] = experiment: Test A postemergence, visual injury rating; conditions: 0 is no effect, 100 is complete control; for Kochia plant response rating: 31 g ai/ha, 0 to 100 scale, approximately 10 days; for Kochia plant response rating (0 to 100 scale): 125 g ai/ha
Summary of the method: as §1

[13] = system: pigweed (Amaranthus retroflexus); experiment: Test A postemergence, visual injury rating; conditions: 0 is no effect, 100 is complete control; for Pigweed plant response rating: 31 g ai/ha, 0 to 100 scale, approximately 10 days; for Pigweed plant response rating (0 to 100 scale): 125 g ai/ha
Summary of the method: as §1

[14] = system: ragweed (common ragweed, Ambrosia elatior); experiment: Test A postemergence, visual injury rating; conditions: 0 is no effect, 100 is complete control; for Ragweed plant response rating: 31 g ai/ha, 0 to 100 scale, approximately 10 days; for Ragweed plant response rating (0 to 100 scale): 125 g ai/ha
Summary of the method: as §1

[15] = system: wheat (Triticum aestivum); experiment: Test A postemergence, visual injury rating; conditions: 0 is no effect, 100 is complete control; for Wheat plant response rating: 31 g ai/ha, 0 to 100 scale, approximately 10 days; for Wheat plant response rating (0 to 100 scale): 125 g ai/ha
Summary of the method: as §1

[16] = system: barnyardgrass (Echinochloa crus-galli); experiment: Test B flooded paddy test, plant response rating; conditions: 250 g ai/ha; Flood; scale of 0 to 100 where 0 is no effect and 100 is complete control; 13 to 15 days
Summary of the method: (§2)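 Compound was added to standing water 3 cm above soil, flood maintained, and plants held in a greenhouse before visual scoring against controls at 13 to 15 days.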

[17] = system: ducksalad (Heteranthera limosa); experiment: Test B flooded paddy test, plant response rating; conditions: 250 g ai/ha; Flood; scale of 0 to 100 where 0 is no effect and 100 is complete control; 13 to 15 days
Summary of the method: as §2

rice (Oryza sativa) = experiment: Test B flooded paddy test, plant response rating; conditions: 250 g ai/ha; Flood; scale of 0 to 100 where 0 is no effect and 100 is complete control; 13 to 15 days
Summary of the method: as §2

[18] = system: sedge, umbrella (small-flower umbrella sedge, Cyperus difformis); experiment: Test B flooded paddy test, plant response rating; conditions: 250 g ai/ha; Flood; scale of 0 to 100 where 0 is no effect and 100 is complete control; 13 to 15 days
Summary of the method: as §2

| SMILES | Plant response rating, Ryegrass, Italian [1] | Ryegrass, Italian plant response rating [1] | Plant response rating, Barnyardgrass [2] | Barnyardgrass plant response rating [2] | Plant response rating, Foxtail, Giant [3] | Foxtail, Giant plant response rating [3] | Plant response rating, Kochia (kochia (Kochia scoparia) [4]) | Kochia plant response rating (kochia (Kochia scoparia) [4]) | Plant response rating, Pigweed [5] | Pigweed plant response rating [5] | Plant response rating, Ragweed [6] | Ragweed plant response rating [6] | Ryegrass, Italian plant response rating [7] | Ryegrass, Italian plant response rating (0 to 100 scale) [7] | Barnyardgrass plant response rating [8] | Barnyardgrass plant response rating (0 to 100 scale) [8] | Blackgrass plant response rating [9] | Blackgrass plant response rating (0 to 100 scale) [9] | Corn plant response rating (corn (Zea mays)) | Corn plant response rating (0 to 100 scale) (corn (Zea mays)) | further results |
| --- | --- | --- | --- | --- | --- | --- | --- | --- | --- | --- | --- | --- | --- | --- | --- | --- | --- | --- | --- | --- | --- |
| O=C(OC/C=C/C(F)(F)F)c1c(Br)cccc1Oc1ncc(Cl)cn1 [Compound 50] | 0 | 0 | 0 | 10 | 50 | 100 | 0 | 0 | 0 | 90 | 0 | 0 | 0 | 20 | 0 | 20 | 0 | 20 | 10 | 10 | Galium plant response rating [10]: 60; Galium plant response rating (0 to 100 scale) [10]: 90; Foxtail, Giant plant response rating [11]: 20; Foxtail, Giant plant response rating (0 to 100 scale) [11]: 70; Kochia plant response rating (kochia (Kochia scoparia) [12]): 60; Kochia plant response rating (0 to 100 scale) (kochia (Kochia scoparia) [12]): 90; Pigweed plant response rating [13]: 80; Pigweed plant response rating (0 to 100 scale) [13]: 100; Ragweed plant response rating [14]: 0; Ragweed plant response rating (0 to 100 scale) [14]: 0; Wheat plant response rating [15]: 0; Wheat plant response rating (0 to 100 scale) [15]: 0; Plant response rating, Barnyardgrass [16]: 0; Plant response rating, Ducksalad [17]: 65; Plant response rating, Rice (rice (Oryza sativa)): 0; Plant response rating, Sedge, Umbrella [18]: 80 |
| COc1cccc(Oc2ncc(Cl)cn2)c1C(C)=O [Compound 51] | 0 | 0 | 0 | 0 | 0 | 0 | 0 | 0 | 0 | 0 | 0 | 0 | 0 | 0 | 0 | 0 | 0 | 0 | 0 | 0 | Galium plant response rating [10]: 0; Galium plant response rating (0 to 100 scale) [10]: 10; Foxtail, Giant plant response rating [11]: 0; Foxtail, Giant plant response rating (0 to 100 scale) [11]: 0; Kochia plant response rating (kochia (Kochia scoparia) [12]): 0; Kochia plant response rating (0 to 100 scale) (kochia (Kochia scoparia) [12]): 0; Pigweed plant response rating [13]: 0; Pigweed plant response rating (0 to 100 scale) [13]: 0; Ragweed plant response rating [14]: 0; Ragweed plant response rating (0 to 100 scale) [14]: 0; Wheat plant response rating [15]: 0; Wheat plant response rating (0 to 100 scale) [15]: 0; Plant response rating, Barnyardgrass [16]: 15; Plant response rating, Ducksalad [17]: 0; Plant response rating, Rice (rice (Oryza sativa)): 15; Plant response rating, Sedge, Umbrella [18]: 0 |
